From ChEMBL document CHEMBL2176959, “Design and synthesis of potent, orally efficacious hydroxyethylamine derived β-site amyloid precursor protein cleaving enzyme (BACE1) inhibitors” (J Med Chem, 2012)

How the values were obtained:
in vitro = conditions: pig, LLC-PK1
[1] = Drug uptake in Sprague-Dawley rat CSF at 30 mg/kg, po at 4 hrs; format: ADME, organism-based; design: dose 30 mg/kg, route oral; conditions: cerebrospinal fluid, read-out: Drug uptake
[2] = Oral bioavailability in Sprague-Dawley rat at 10 mg/kg; format: ADME, organism-based; conditions: in vivo
[3] = Tmax in Sprague-Dawley rat at 10 mg/kg, po; format: ADME, organism-based; design: dose 10 mg/kg, route oral; conditions: in vivo
[4] = AUC (0 to infinity) in Sprague-Dawley rat at 10 mg/kg, po; format: ADME, organism-based; design: time infinity, dose 10 mg/kg, route oral; conditions: plasma
[5] = Plasma concentration in Sprague-Dawley rat at 30 mg/kg, po at 4 hrs; format: ADME, organism-based; design: dose 30 mg/kg, route oral
[6] = Cmax in Sprague-Dawley rat at 10 mg/kg, po; format: ADME, organism-based; design: dose 10 mg/kg, route oral; conditions: in vivo
[7] = Volume of distribution at steady state in Sprague-Dawley rat at 2 mg/kg, iv; format: ADME, organism-based; design: dose 2 mg/kg, route intravenous; conditions: in vivo, read-out: Vdss

SMILES	Papp at 2 h (in vitro) [×10⁻⁶ cm/s]	concentration at 4 h [1] [nM]	bioavailability [2] [%]	Tmax [3] [h]	AUC(0-inf) [4] [ng·h/mL]	concentration at 4 h [5] [nM]	Cmax [6] [ng/mL]	Vd [7] [L/kg]
COCC(=O)N[C@@H](Cc1cccc(-c2ccncc2)c1)[C@H](O)CN[C@H]1CC2(CCC2)Oc2ncc(CC(C)(C)C)cc21	22							
COCC(=O)N[C@@H](Cc1ccc(F)c(-c2nccs2)c1)[C@H](O)CN[C@H]1CC2(CCC2)Oc2ncc(CC(C)(C)C)cc21	28							
COCC(=O)N[C@@H](Cc1cc(-c2nccs2)ccc1F)[C@H](O)CN[C@H]1CC2(CCC2)Oc2ncc(CC(C)(C)C)cc21	11							
C#Cc1cccc(C[C@H](NC(=O)COC)[C@H](O)CN[C@H]2CC3(CCC3)Oc3ncc(CC(C)(C)C)cc32)c1		78	100	5.33	24200	3540	4860	1.54
COCC(=O)N[C@@H](Cc1cccc(-c2nccs2)c1)[C@H](O)CN[C@H]1CC2(CCC2)Oc2ncc(CC(C)(C)C)cc21		52	120	3.33	9030	3270	1890	2.19
